The values below come from article PMC11744766, “Dual Inhibitors of SARS-CoV-2 3CL Protease and Human Cathepsin L Containing Glutamine Isosteres Are Anti-CoV-2 Agents” (Journal of the American Chemical Society, 2025).

In general, EC50 refers to the concentration needed to bring the measured effect to its halfway point.

For assay [1], the target named is T1, SARS-CoV-2 3CL protease (3CL-PR) (Severe acute respiratory syndrome coronavirus 2, UniProt P0DTC1). As to conditions: cited from earlier work; for Ki: read-out: Ki (3CL-PR).
For assay [2], the target named is T2, human cathepsin L (Homo sapiens, UniProt P07711).
T2 construct: His-tag (only implied by the Ni-NTA capture and the pET-28a(+) vector); host or cells: E. coli C43(DE3)
As to conditions: read-out: Ki (hCatL), cited from earlier work.

For assay [3], the target named is T2, human cathepsin L. Briefly: Kinetic assay of human cathepsin L inhibition (Z-LR-AMC / Z-FR-AMC fluorescence). Type of assay: biochemical. As to conditions: for mode of inhibition of hCatL: inhibitor vs variable substrate.
Assay [4] concerns SARS-CoV-2 (USA_WA1/2020 isolate). Kind of assay: Vero E6-based microneutralization assay of SARS-CoV-2 infection (CPE). Type of assay: cell-based. As to conditions: for fold less potent in inhibiting SARS-CoV-2 infection than Nirmatrelvir and PF-835231: ratio of EC50.
The target in another assay is T3, human cathepsin B (Homo sapiens, UniProt P07858).
T3 construct: purchased Millipore Sigma or R&D Systems
Kind of assay: Kinetic assay of human cathepsin B inhibition (Z-LR-AMC fluorescence). Type of assay: biochemical.

Assay [5] has as its target T1, SARS-CoV-2 3CL protease (3CL-PR). Briefly: biochemical. The format is biochemical.
The mark [6] stands for this setting: 25 °C, pH 5.5, time-dependent inhibitors at t ∼ 30 min (steady-state), read-out: Ki * (nM) hCat L.
The mark [7] stands for this setting: Severe acute respiratory syndrome coronavirus 2, Vero C1008, 72 h, Vero E6 cells, 2 μM CP-100356, CPE after 3 days, read-out: Anti-SARS-CoV-2 Activity EC50.
[8] abbreviates: 25 °C, pH 5.5, time-dependent inhibitors at t ∼ 30 min (steady-state), read-out: Ki * (nM) hCat B.
Where [9] appears, read: initial rates, t = 0–3 min, read-out: Ki (hCatB) from initial rates vi/v0.
[10] abbreviates: 25 °C, pH 7.5, time-dependent inhibitors at t ∼ 30 min (steady-state), read-out: Ki * (nM) 3CL-PR.

Where “and” joins values, the source holds several entries; their conditions need not be identical. Equal entries are not always repeated. Where two headings read alike, the source gives them in different places.

T2 sequence (P07711 114-333): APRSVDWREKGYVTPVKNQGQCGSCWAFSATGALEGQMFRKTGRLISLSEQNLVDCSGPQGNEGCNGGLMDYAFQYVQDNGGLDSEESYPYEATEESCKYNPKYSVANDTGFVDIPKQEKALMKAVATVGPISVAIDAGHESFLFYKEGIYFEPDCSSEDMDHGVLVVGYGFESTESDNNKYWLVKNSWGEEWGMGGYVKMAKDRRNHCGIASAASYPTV

As to `CC(C)C[C@H](NC(=O)c1cc2ccccc2[nH]1)C(=O)N[C@H](C=O)C[C@@H]1CCNC1=O` [AC1115, reference compound], the Ki in assay [1] (AC1115) was 2.4 nM; at human cathepsin L [2] (AC1115), ~0.06 nM.
On to `CN1CCN(C(=O)NC(Cc2ccccc2)C(=O)NC2Cc3ccccc3OC2O)CC1` (centres unmarked) [Compound 1], for which, in assay [1] (compound 1), the “inhibition of 3CL-PR” value is “did not inhibit” and the Ki was > 10000 nM.
As to `CN1CCN(C(=O)NC(Cc2ccccc2)C(=O)NC2Cc3cccnc3OC2O)CC1` (centres unmarked) [Compound 2], the Ki is 250 nM in assay [1] (compound 2); 1.03 nM and 1 nM at human cathepsin L [2] (compounds 1 and 2).
`CC(C)C[C@H](NC(=O)OCc1ccccc1)C(=O)N[C@@H](CC1CCCCC1)C(=O)N[C@H](C=O)Cc1ccc[nH]c1=O` [Compound 3]: the Ki was determined as 8 ± 1 nM at human cathepsin L [3] (setting [6]); 280 ± 5 nM on human cathepsin B (setting [8]); 290 nM at human cathepsin B (setting [9]); 9 ± 2 nM in assay [5] (setting [10]); 16 nM in assay [5] (competitive pattern at < 10 min incubation (Figure S1B), read-out: Ki (3CL-PR) before longer incubation). Further, the “mode of inhibition of hCatL” value at human cathepsin L [3] is “competitive inhibitor”. Moreover, the 50% effective concentration (EC50) in assay [4] (setting [7]) was determined as 0.47 µM. Moreover, the “fold less potent in inhibiting SARS-CoV-2 infection than Nirmatrelvir and PF-835231” value in assay [4] (Vero E6 cells) is listed as 2 fold. In addition, the “mode of inhibition of 3CL-PR” value in assay [5] (inhibitor vs variable substrate) is “competitive inhibitor”. Moreover, in assay [5] (ratio of Ki), the “fold less potent vs 3CL-PR than Nirmatrelvir” value came to 3 fold.
`CC(C)CC(NC(=O)c1cc2ccccc2[nH]1)C(=O)NC(C=O)Cc1ccc[nH]c1=O` (centres unmarked) [Compound 4]: the results for the Ki (on human cathepsin L [3] (setting [6]); at human cathepsin B (setting [8]); in assay [5] (setting [10])) were 17 ± 1 nM, 210 ± 20 nM and 38 ± 4 nM, respectively. Further, in assay [4] (setting [7]), the EC50 stood at 15 µM.
As for `O=CC(Cc1ccc[nH]c1=O)NC(=O)C(CC1CCCCC1)NC(=O)c1cc2ccccc2[nH]1` (centres unmarked) [Compound 5], the Ki at human cathepsin L [3] (setting [6]) is 9 ± 2 nM; on human cathepsin B (setting [8]) it was 101 ± 3 nM; in assay [5] (setting [10]) it was 27 ± 5 nM. The “fold improvement in inhibition of hCatL, 5 over 4” value on human cathepsin L [3] (CHA for Leu at P2) came to 2 fold. For the same compound, the “mode of inhibition of hCatL” value on human cathepsin L [3] is given as “competitive inhibitor”. Besides, the 50% effective concentration (EC50) in assay [4] (setting [7]) was found to be 1.9 µM. Moreover, the “fold less potent in inhibiting SARS-CoV-2 infection than Nirmatrelvir and PF-835231” value in assay [4] (Vero E6 cells) is listed as “eight-fold less active”. Besides, the “fold improvement in inhibition of 3CL-PR, 5 over 4” value in assay [5] (CHA for Leu at P2) is 1.5 fold.
`COc1cccc2[nH]c(C(=O)NC(CC(C)C)C(=O)NC(C=O)Cc3ccc[nH]c3=O)cc12` (centres unmarked) [Compound 6]: the “fold improvement in inhibition of hCatL, 6 over 4” value at human cathepsin L [3] (4-methoxy group on indole) came to 30 fold. Further, the Ki is 0.6 nM and 0.55 nM at human cathepsin L [3] (setting [6]); 2.3 ± 0.4 nM on human cathepsin L [3] (initial rates, t = 0–180 s, read-out: Ki (hCatL) from initial rates vi/v0); 100 ± 2 nM at human cathepsin B (setting [8]); 65 ± 3 nM on human cathepsin B (setting [9]); 2.6 ± 0.4 nM in assay [5] (setting [10]); 20 ± 2 nM in assay [5] (initial rates, t = 0–180 s, read-out: Ki (3CL-Pro) from initial rates vi/v0). The concentration for a half-maximal effect (EC50) in assay [4] (setting [7]) worked out at 1.25 µM. For the same compound, the “fold less potent in inhibiting SARS-CoV-2 infection than Nirmatrelvir and PF-835231” value in assay [4] (Vero E6 cells) is reported as “five-fold less potent”. In assay [4] (not evaluated under the same conditions), the “fold less anti-CoV-2 activity in comparison to AC1115” value is listed as 4 fold. Further, the “fold more potent vs 3CL-PR, 6 compared to 8” value in assay [5] was 50 fold. Further, the “fold improvement in inhibition of 3CL-PR, 6 over 4” value in assay [5] (4-methoxy group on indole) was determined as 15 fold.
Consider `COc1cccc2[nH]c(C(=O)N[C@@H](CC(C)C)C(=O)N[C@H](C=O)Cc3cocn3)cc12` [Compound 8], for which the Ki was 1.1 ± 0.1 nM on human cathepsin L [3] (setting [6]), 189 ± 9 nM at human cathepsin B (setting [8]) and 124 ± 5 nM in assay [5] (setting [10]). Also, the EC50 in assay [4] (Severe acute respiratory syndrome coronavirus 2, Vero C1008, 72 h, read-out: Anti-SARS-CoV-2 Activity EC50 (μM), Vero E6 cells, 2 μM CP-100356, CPE after 3 days) turned out to be 0.62 µM; in assay [4] (Vero E6 cells, 2 μM CP-100356, CPE after 3 days, read-out: Anti-SARS-CoV-2 Activity EC50), 0.625 µM.
Regarding `CN1CCN(C(=O)N[C@@H](Cc2ccccc2)C(=O)N[C@H](/C=C/S(=O)(=O)c2ccccc2)CCc2ccccc2)CC1` [Compound K11777, reference compound], the Ki in assay [1] (K11777) is > 10000 nM.
For `CC(C)(C)[C@H](NC(=O)C(F)(F)F)C(=O)N1C[C@H]2[C@@H]([C@H]1C(=O)N[C@H](C#N)C[C@@H]1CCNC1=O)C2(C)C` [Nirmatrelvir, reference compound], the concentration giving a half-maximal response (EC50) in assay [4] (setting [7]) is 0.23 µM.
`COc1cccc2[nH]c(C(=O)N[C@@H](CC(C)C)C(=O)N[C@@H](C[C@@H]3CCNC3=O)C(=O)CO)cc12` [PF-835231, reference compound]: the EC50 in assay [4] (setting [7]) stood at 0.23 µM. Further, in assay [5] (setting [10]), the Ki was 0.23 ± 0.09 nM. Moreover, the “fold more potent than Nirmatrelvir vs 3CL-PR” value in assay [5] (ratio of Ki) is on record as “more than 10 fold”.
